The values that follow are results of earlier work, collected in publication PMC7606817 (Journal of controlled release : official journal of the …, 2020).

Each structure is given as a SMILES string.

For the data set the following is noted: mice.

Turning to `[C-]#[O+]` [CO, Carbon monoxide], the CO elimination half-life is on record as 20 min.
